From patent US12636284B2, “Compositions for use in the prevention and/or treatment of intellectual disability and neurodegenerative diseases in a subject with down syndrome” (UNIVERSITA' DEGLI STUDI DI ROMA “LA SAPIENZA”, priority 2021, dated 2026)

Test system: GSK3b protein
Assay: GSK3b activation (pSer9/pTyr216 ratio) in primary hippocampal neurons isolated from Ts2Cje mice
Format: cell-based, mouse
Conditions: 1, 5, 10 μM for 24 hours
Experimental: For Western blots, 20 μg of proteins from the hippocampus of mice belonging to the four experimental groups were separated by 4-15% SDS-PAGE CriterionTM […] (Bio-rad, Hercules, CAUSE). […] Therefore, the gel, once the image has been acquired, represents the total of the loaded proteins (Total Load), which will then be used to normalize the specific proteins to be examined. After electrophoresis and gel imaging, proteins are transferred via the semi-dry TransBlot Turbo apparatus (Bio-Rad Laboratories) onto nitrocellulose membranes (Bio-Rad, Hercules, CA, USA). Nitrocellulose membranes are blocked with 3% bovine serum albumin (BSA) in a solution of Tween 20-TBS and incubated overnight at 4° C. using specific primary antibodies: p([…])-GSK3B (1:1000, Santa Cruz, #sc-135653), p(S9)-GSK3β (1:1000, Cell Signaling, #5558S), GSK3β (1:1000 Abcam, #93926) and DYRK1A (1:1000, Cell Signaling, #8765S), MAPK44/42 (1:1000, Cell Signaling, #9102), p[…])-MAPK44/42 (1 1000, Cell Signaling, #9101), Akt (1:2000, Bio-Rad, # vma00253K), p(S473) Akt (1:1000, Cell Signaling, #4060S). After three washes with a T-TBS buffer solution, membranes were incubated for 1 hour at room temperature with the secondary antibodies. Secondary antibodies with peroxidase activity are anti-mouse or anti-rabbit (1:5000, Bio-rad, Hercules, CA, USA). […] Finally, the results obtained were analyzed using the ImageLab program (Bio-rad, Hercules, CA, USA). […] In order to isolate primary hippocampal neurons, hippocampi from Ts and euploid mice were mechanically dissociated in PBS (with Ca^2+ and […]) and centrifuged (3 minutes, 1100 rpm, 25° C.). Subsequently, the pellet was resuspended in 0.25% trypsin solution and centrifuged further for 3 minutes at 1100 rpm at Tamb. At this point, the cell extract was resuspended in MEM 1 culture medium (Minimum Essential Medium complemented with fetal bovine serum (FBS-1%), L-glutamine 200 mM (1%), glucose 25 mM (1%), gentamicin 0.1 mg/ml) and centrifuged for 10 minutes, 1100 rpm at 25° C. […]

For `N[C@@H](CC(=O)N1CCn2c(nnc2C(F)(F)F)C1)Cc1cc(F)c(F)cc1F` [sitagliptin, (R)-4-oxo-4-[3-(trifluoromethyl)-5,6-dihydro[1,2,4]triazole[4,3-a]pyrazin-7(8H)-yl]-1-(2,4,5-trifluorophenyl)butan-2-amine], the “activity of the GSK3B protein in Ts2Cje neurons” value was “significant increase”.
